Measured values reported in ChEMBL document CHEMBL4411263, “Isolation of Tryptanthrin and Reassessment of Evidence for Its Isobaric Isostere Wrightiadione in Plants of the Wrightia Genus” (J Nat Prod, 2019).
≈ marks a conversion by molar mass, not a printed value.

Experiments:
Vero = assay: Cytotoxicity against African green monkey Vero cells by CellTiter 96 aqueous nonradioactive cell proliferation assay; format: cell-based; details: Chlorocebus sabaeus
[1] = system: Mycobacterium tuberculosis; assay: Antitubercular activity against Mycobacterium tuberculosis H37Rv; format: functional
[2] = system: Mycobacterium tuberculosis; assay: Antitubercular activity against Mycobacterium tuberculosis H37Rv ATCC 27294 incubated for 1 week by MABA; format: functional; details: H37Rv ATCC 27294, 168 h

| Compound | IC50 (Vero) [µg/mL] | MIC [1] [µg/mL] | MIC90 [2] [µg/mL] |
| --- | --- | --- | --- |
| O=C1c2ccccc2-n2c1nc1ccccc1c2=O [TRYPTANTHRIN] | > 100 | 1 (≈ 4.03 µM) | 7.59 (≈ 30.6 µM) |
| CO[C@H]1/C=C/O[C@@]2(C)Oc3c(C)c(O)c4c(O)c(c(/C=N/N5CCN(C)CC5)c(O)c4c3C2=O)NC(=O)/C(C)=C\C=C\[C@H](C)[C@H](O)[C@@H](C)[C@@H](O)[C@@H](C)[C@H](OC(C)=O)[C@@H]1C [RIFAMPIN] | 97.4 (≈ 118 µM) | – | 0.05 (≈ 0.0608 µM) |
